Residues, ends and D or L forms follow the SMILES beside them. *: point of attachment. X6 = CNCc1ccc(-c2c3c4c(cc(F)cc4n2[C@@H](CC(C)C)NC(=O)OCCS*)C(=O)NCC3)cc1; X3 = CN(Cc1ccc(-c2[nH]c3cc(F)cc4c3c2CCNC4=O)cc1)C(=O)OCc1ccc(S*)cc1; X21 = NC(=O)c1cccc2cn(-c3ccc([C@@H]4CCCN(C(=O)OCCS*)C4)cc3)nc12
Target: PARP (Homo sapiens, UniProt P09874)
Experiment: Enzymatic Assay 2: HT Universal Chemiluminescent PARP Assay of cleaved compounds;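 also: PARP reaction with activated DNA run 1 h at room temperature, product detected via streptavidin-HRP and luminescence endpoint reading on a plate reader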
Conditions: read-out: IC50 Enzymatic Assay 2; Examples cleaved per Example A (crude cleavage solution); R^8H starting materials as such
Procedure: An equal volume of 1×PARP cocktail containing activated DNA was added to each well and the reaction was incubated for one hour at room temperature. The wells were washed twice with 1×PBS+0.1% Triton X-100 and twice with PBS. 50 ul/well of diluted streptavidin-HRP was added and the wells were incubated for one hour at room temperature. The wells were washed twice with 1×PBS+0.1% Triton X-100 and washed twice with PBS. The liquid was 5 removed, 100 ul/well 1:1 PeroxyGlow A/PeroxyGlow B was added and the chemiluminescent readings were measured on a BioTek Cytation 5 plate reader using the luminescence fiber endpoint.

PARP, sequence (P09874 whole entry): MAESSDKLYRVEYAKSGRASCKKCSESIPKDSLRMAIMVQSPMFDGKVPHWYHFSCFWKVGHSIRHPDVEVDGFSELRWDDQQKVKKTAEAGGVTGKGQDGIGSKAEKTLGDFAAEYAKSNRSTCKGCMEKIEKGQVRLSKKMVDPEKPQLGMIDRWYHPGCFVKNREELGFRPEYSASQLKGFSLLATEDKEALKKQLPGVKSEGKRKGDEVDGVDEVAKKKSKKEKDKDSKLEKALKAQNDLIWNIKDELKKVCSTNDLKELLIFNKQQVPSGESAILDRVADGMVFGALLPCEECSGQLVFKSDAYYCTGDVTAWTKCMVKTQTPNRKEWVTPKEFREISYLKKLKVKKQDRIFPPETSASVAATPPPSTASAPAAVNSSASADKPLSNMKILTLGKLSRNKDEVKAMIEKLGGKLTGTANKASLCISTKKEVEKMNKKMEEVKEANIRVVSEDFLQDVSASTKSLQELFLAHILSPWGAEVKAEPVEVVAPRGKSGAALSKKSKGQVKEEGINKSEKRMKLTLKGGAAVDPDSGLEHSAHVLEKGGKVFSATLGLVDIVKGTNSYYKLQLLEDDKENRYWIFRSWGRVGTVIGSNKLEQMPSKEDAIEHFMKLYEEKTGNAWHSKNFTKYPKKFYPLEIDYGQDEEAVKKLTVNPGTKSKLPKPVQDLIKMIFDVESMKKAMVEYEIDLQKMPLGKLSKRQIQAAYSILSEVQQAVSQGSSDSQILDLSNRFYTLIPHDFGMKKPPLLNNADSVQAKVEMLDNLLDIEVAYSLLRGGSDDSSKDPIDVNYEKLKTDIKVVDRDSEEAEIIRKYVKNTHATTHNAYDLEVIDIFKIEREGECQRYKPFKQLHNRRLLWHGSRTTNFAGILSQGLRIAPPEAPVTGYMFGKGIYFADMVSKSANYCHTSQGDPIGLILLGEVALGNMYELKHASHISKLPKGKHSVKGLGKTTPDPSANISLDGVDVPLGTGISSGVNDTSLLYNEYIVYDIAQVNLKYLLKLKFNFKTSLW

Going from `CC[C@H](C)[C@H](NC(=O)[C@@H]1CCCN1C(=O)[C@H](CC(N)=O)NC(=O)[C@H](CCC(N)=O)NC(=O)[C@H](CCC(=O)O)NC(=O)[C@H](C)N)C(=O)N[C@@H](Cc1ccc(O)cc1)C(=O)N[C@@H](Cc1c[nH]c2ccccc12)C(=O)N[C@@H](C)C(=O)N[C@@H](CCCNC(=N)N)C(=O)N[C@@H](Cc1ccc(O)cc1)C(=O)N[C@@H](C)C(=O)N[C@@H](CC(=O)O)C(=O)N[C@@H](Cc1c[nH]c2ccccc12)C(=O)N[C@@H](CC(C)C)C(=O)N[C@@H](Cc1ccccc1)C(=O)N[C@H](C(=O)N[C@H](C(=O)N1CCC[C@H]1C(=O)N[C@@H](CC(C)C)C(=O)N[C@@H](CC(C)C)C(=O)N[C@@H](CC(C)C)C(=O)N[C@@H](CC(C)C)C(=O)N[C@@H](CC(=O)O)C(=O)N[C@@H](CC(C)C)C(=O)N[C@@H](C)C(=O)N[C@@H](CC(C)C)C(=O)N[C@@H](CC(C)C)C(=O)N[C@H](C(=O)N[C@@H](CC(=O)O)C(=O)N[C@@H](C)C(=O)N[C@@H](CC(=O)O)C(=O)N[C@@H](CCC(=O)O)C(=O)N[C@@H](CSSCCOC(=O)N1CCC[C@@H](c2ccc(-n3cc4cccc(C(N)=O)c4n3)cc2)C1)C(=O)NCC(=O)O)C(C)C)[C@@H](C)O)[C@@H](C)O` [Example 49] (H-AEQNPIYWARYADWLFTTPLLLLDLALLVDADEC(X21)G-OH; N-terminus and C-terminus assumed) to `CC[C@H](C)[C@H](NC(=O)[C@@H]1CCCN1C(=O)[C@H](CC(N)=O)NC(=O)[C@H](CCC(N)=O)NC(=O)[C@H](CCC(=O)O)NC(=O)[C@H](C)N)C(=O)N[C@@H](Cc1ccc(O)cc1)C(=O)N[C@@H](Cc1c[nH]c2ccccc12)C(=O)N[C@@H](C)C(=O)N[C@@H](CCCNC(=N)N)C(=O)N[C@@H](Cc1ccc(O)cc1)C(=O)N[C@@H](C)C(=O)N[C@@H](CC(=O)O)C(=O)N[C@@H](Cc1c[nH]c2ccccc12)C(=O)N[C@@H](CC(C)C)C(=O)N[C@@H](Cc1ccccc1)C(=O)N[C@H](C(=O)N[C@H](C(=O)N1CCC[C@H]1C(=O)N[C@@H](CC(C)C)C(=O)N[C@@H](CC(C)C)C(=O)N[C@@H](CC(C)C)C(=O)N[C@@H](CC(C)C)C(=O)N[C@@H](CC(=O)O)C(=O)N[C@@H](CC(C)C)C(=O)N[C@@H](C)C(=O)N[C@@H](CC(C)C)C(=O)N[C@@H](CC(C)C)C(=O)N[C@H](C(=O)N[C@@H](CC(=O)O)C(=O)N[C@@H](C)C(=O)N[C@@H](CC(=O)O)C(=O)N[C@@H](CCC(=O)O)C(=O)N[C@@H](CSSCCOC(=O)N[C@H](CC(C)C)n1c(-c2ccc(CNC)cc2)c2c3c(cc(F)cc31)C(=O)NCC2)C(=O)NCC(=O)O)C(C)C)[C@@H](C)O)[C@@H](C)O` [Example 35] (H-AEQNPIYWARYADWLFTTPLLLLDLALLVDADEC(X6)G-OH; N-terminus and C-terminus assumed), the IC50 falls from 26 nM to 3.1 nM (8.4-fold). The second is the more potent here.

Work on `CC[C@H](C)[C@H](NC(=O)[C@@H]1CCCN1C(=O)[C@H](CC(N)=O)NC(=O)[C@H](CCC(N)=O)NC(=O)[C@H](CCC(=O)O)NC(=O)[C@H](C)N)C(=O)N[C@@H](Cc1ccc(O)cc1)C(=O)N[C@@H](Cc1c[nH]c2ccccc12)C(=O)N[C@@H](C)C(=O)N[C@@H](CCCNC(=N)N)C(=O)N[C@@H](Cc1ccc(O)cc1)C(=O)N[C@@H](C)C(=O)N[C@@H](CC(=O)O)C(=O)N[C@@H](Cc1c[nH]c2ccccc12)C(=O)N[C@@H](CC(C)C)C(=O)N[C@@H](Cc1ccccc1)C(=O)N[C@H](C(=O)N[C@H](C(=O)N1CCC[C@H]1C(=O)N[C@@H](CC(C)C)C(=O)N[C@@H](CC(C)C)C(=O)N[C@@H](CC(C)C)C(=O)N[C@@H](CC(C)C)C(=O)N[C@@H](CC(=O)O)C(=O)N[C@@H](CC(C)C)C(=O)N[C@@H](C)C(=O)N[C@@H](CC(C)C)C(=O)N[C@@H](CC(C)C)C(=O)N[C@H](C(=O)N[C@@H](CC(=O)O)C(=O)N[C@@H](C)C(=O)N[C@@H](CC(=O)O)C(=O)N[C@@H](CCC(=O)O)C(=O)N[C@@H](CSSc1ccc(COC(=O)N(C)Cc2ccc(-c3[nH]c4cc(F)cc5c4c3CCNC5=O)cc2)cc1)C(=O)NCC(=O)O)C(C)C)[C@@H](C)O)[C@@H](C)O` [Example 28] (H-AEQNPIYWARYADWLFTTPLLLLDLALLVDADEC(X3)G-OH; N-terminus and C-terminus assumed) yielded an IC50 of 2.4 nM.

Reference: patent US12427157B2, “Methods for treatment of diseases involving acidic or hypoxic diseased tissues” (Cybrexa 1, Inc., priority 2018, dated 2025)
